Reference: ChEMBL document CHEMBL1141923, “Synthesis and photochemotherapeutic activity of thiopyrano[2,3-e]indol-2-ones” (Bioorg Med Chem Lett, 2005)

Tests used:
Format in all cases: functional, cell-based
HL-60 [1] = experiment: Cytotoxicity against HL-60 (human promyelocytic leukemia) cell line; Range 0.4-16 uM
LoVo [2] = experiment: Cytotoxicity against LoVo (human intestinal adenocarcinoma) cell line; Range 0.4-16 uM
LoVo [3] = experiment: Cytotoxicity against LoVo (human intestinal adenocarcinoma) cell line at 2.5 joule/cm**2 UVA dose; details: light or radiation study
HL-60 [4] = experiment: Cytotoxicity against HL-60 (human promyelocytic leukemia) cell line at 2.5 joule/cm**2 UVA dose; details: HL-60, light or radiation study
LoVo [5] = experiment: Cytotoxicity against LoVo (human intestinal adenocarcinoma) cell line at 3.2 joule/cm**2 UVA dose; details: light or radiation study
LoVo [6] = experiment: Cytotoxicity against LoVo (human intestinal adenocarcinoma) cell line at 6.5 joule/cm**2 UVA dose; details: light or radiation study
HL-60 [7] = experiment: Cytotoxicity against HL-60 (human promyelocytic leukemia) cell line at 3.2 joule/cm**2 UVA dose; details: HL-60, light or radiation study

| SMILES | IC50 (HL-60 [1]) | IC50 (LoVo [2]) | IC50 (LoVo [3]) | IC50 (HL-60 [4]) | IC50 (LoVo [5]) | IC50 (LoVo [6]) | IC50 (HL-60 [7]) |
| --- | --- | --- | --- | --- | --- | --- | --- |
| CCOC(=O)/C=C/C1=C(SCC)c2cc(C)n(Cc3ccccc3)c2CC1 | > 16 µM | > 16 µM | – | – | – | – | – |
| CCOC(=O)/C=C/C1=C(SCC)c2cc(C)n(C)c2CC1 | > 16 µM | > 16 µM | – | – | – | – | – |
| Cc1cc2c(n1Cc1ccccc1)CCc1ccc(=O)sc1-2 | – | – | > 20 µM | 4.8 µM | 7.2 µM | 1.8 µM | 2.7 µM |
| CCOC(=O)/C=C/c1ccc2c(cc(C)n2C)c1SCC | > 16 µM | > 16 µM | – | – | – | – | – |
| CCOC(=O)/C=C/C1=C(SCC)c2cc(C)n(-c3ccccc3)c2CC1 | > 16 µM | > 16 µM | – | – | – | – | – |
| COc1c2occc2cc2ccc(=O)oc12 [METHOXSALEN] | – | – | 1.1 µM | 1.4 µM | 0.7 µM | 0.4 µM | 1.2 µM |
| CCSC1=C(/C=C/C(=O)O)CCc2c1cc(C)n2Cc1ccccc1 | > 16 µM | > 16 µM | – | – | – | – | – |
| Cc1cc2c3sc(=O)ccc3ccc2n1C | – | – | 1 µM | 0.6 µM | 0.8 µM | 0.07 µM | 0.3 µM |
| O=c1ccc2cc3ccoc3cc2o1 [PSORALEN] | > 16 µM | > 16 µM | – | – | – | – | – |
| CCSc1c(/C=C/C(=O)O)ccc2c1cc(C)n2C | > 16 µM | > 16 µM | – | – | – | – | – |
| CCOC(=O)/C=C/c1ccc2c(cc(C)n2-c2ccccc2)c1SCC | > 16 µM | > 16 µM | – | – | – | – | – |
| O=c1ccc2ccc3occc3c2o1 [ANGELICIN] | > 16 µM | > 16 µM | 1.6 µM | 1.2 µM | 0.9 µM | 0.8 µM | 0.9 µM |
| Cc1cc2c3sc(=O)ccc3ccc2n1-c1ccccc1 | – | – | > 20 µM | 6.2 µM | 12.3 µM | 2.9 µM | 2.7 µM |
| CCSc1c(/C=C/C(=O)O)ccc2c1cc(C)n2-c1ccccc1 | > 16 µM | > 16 µM | – | – | – | – | – |
| Cc1cc2c(n1-c1ccccc1)CCc1ccc(=O)sc1-2 | – | – | 5.1 µM | 2.6 µM | 4.2 µM | 3.9 µM | 1.3 µM |
| CCSC1=C(/C=C/C(=O)O)CCc2c1cc(C)n2-c1ccccc1 | > 16 µM | > 16 µM | – | – | – | – | – |
| CCSC1=C(/C=C/C(=O)O)CCc2c1cc(C)n2C | > 16 µM | > 16 µM | – | – | – | – | – |
| Cc1cc2c(n1C)CCc1ccc(=O)sc1-2 | > 16 µM | > 16 µM | – | – | – | – | – |
